“And” between values parts separate entries of the source, which are not always exact repeats. Equal entries are not always repeated. Toxic doses and inconclusive results are not listed. Rule for the calls: active = survival T/C of 150% or more; inactive = T/C below 125% in these data.
System: P388 leukemia ip, CD2F1 mice, survival T/C
Test: NCI In Vivo Anticancer Drug Screen. Data for tumor model P388 Leukemia (intraperitoneal) in CD2F1 (CDF1) mice
Details: endpoint: median survival time, higher = longer survival
Procedure, shortened: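 Mice carrying the transplanted tumor received test compound or vehicle. Survival was recorded in each group, and the value is the treated-group measurement divided by that of the vehicle-treated control group.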

[1] = dose: 50.0 mg/kg/injection, schedule: Q01DX009 (ip), vehicle: Klucel (hydroxypropylcellulose) (HPC)
[2] = dose: 100.0 mg/kg/injection, schedule: Q01DX009 (ip), vehicle: Klucel (hydroxypropylcellulose) (HPC)
[3] = dose: 50.0 mg/kg/injection, schedule: Q01DX005 (ip), vehicle: saline
[4] = dose: 12.5 mg/kg/injection, schedule: Q01DX005 (ip), vehicle: Klucel (hydroxypropylcellulose) (HPC)
[5] = dose: 25.0 mg/kg/injection, schedule: Q01DX005 (ip), vehicle: Klucel (hydroxypropylcellulose) (HPC)
[6] = dose: 50.0 mg/kg/injection, schedule: Q01DX005 (ip), vehicle: Klucel (hydroxypropylcellulose) (HPC)
[7] = dose: 50.0 mg/kg/injection, schedule: Q01DX009 (ip), vehicle: suspension in saline
[8] = dose: 100.0 mg/kg/injection, schedule: Q01DX009 (ip), vehicle: suspension in saline
[9] = dose: 60.0 mg/kg/injection, schedule: Q01DX005 (ip), vehicle: saline with Tween-80
[10] = dose: 120.0 mg/kg/injection, schedule: Q01DX005 (ip), vehicle: saline with Tween-80
[11] = dose: 240.0 mg/kg/injection, schedule: Q01DX005 (ip), vehicle: saline with Tween-80
[12] = dose: 50.0 mg/kg/injection, schedule: Q01DX005 (ip), vehicle: saline with Tween-80
[13] = dose: 100.0 mg/kg/injection, schedule: Q01DX005 (ip), vehicle: saline with Tween-80
[14] = dose: 100.0 mg/kg/injection, schedule: Q01DX005 (ip), vehicle: saline
[15] = dose: 200.0 mg/kg/injection, schedule: Q01DX005 (ip), vehicle: saline
[16] = dose: 100.0 mg/kg/injection, schedule: Q01DX009 (ip), vehicle: saline with Tween-80

Measured: T/C

O=C1CC2OCCC3CN4CCC56c7ccccc7N1C5C2C3CC46 (configuration not stated)
inactive: dose: 7.5 mg/kg/injection, schedule: Q01DX005 (ip), vehicle: Klucel (hydroxypropylcellulose) (HPC) 101 % of control | dose: 15.0 mg/kg/injection, schedule: Q01DX005 (ip), vehicle: Klucel (hydroxypropylcellulose) (HPC) 98 % of control | dose: 30.0 mg/kg/injection, schedule: Q01DX005 (ip), vehicle: Klucel (hydroxypropylcellulose) (HPC) 98 % of control

Nc1ncnc(N)c1N=O
inactive: dose: 50.0 mg/kg/injection, schedule: Q04DX003 (ip), vehicle: saline with Tween-80 100 % of control | dose: 100.0 mg/kg/injection, schedule: Q04DX003 (ip), vehicle: saline with Tween-80 104 % of control | dose: 200.0 mg/kg/injection, schedule: Q04DX003 (ip), vehicle: saline with Tween-80 100 % of control

COc1ccc2[nH]c3cc4c(=O)c5cc(OC)ccc5[nH]c4cc3c(=O)c2c1
inactive: [1] 96 % of control | [2] 100 % of control | dose: 200.0 mg/kg/injection, schedule: Q01DX009 (ip), vehicle: Klucel (hydroxypropylcellulose) (HPC) 100 % of control

CC1OC(=O)C2=CCC(O)C(O)C2C1NC(=O)OCc1ccccc1 (configuration not stated)
inactive: dose: 100.0 mg/kg/injection, schedule: Q01DX001 (ip), vehicle: saline with Tween-80 108 % of control | dose: 200.0 mg/kg/injection, schedule: Q01DX001 (ip), vehicle: saline with Tween-80 108 % of control | dose: 400.0 mg/kg/injection, schedule: Q01DX001 (ip), vehicle: saline with Tween-80 101 % of control

O=P(O)(O)SP(=O)(O)O.[Ni]
inactive: dose: 12.5 mg/kg/injection, schedule: Q01DX001 (ip), vehicle: suspension in saline 102 % of control and 94 % of control | dose: 25.0 mg/kg/injection, schedule: Q01DX001 (ip), vehicle: suspension in saline 99 % of control and 94 % of control | dose: 50.0 mg/kg/injection, schedule: Q01DX001 (ip), vehicle: suspension in saline 122 % of control

CN(C)CCOC1=Nc2ccccc2O/C1=C/c1ccccc1
inactive: [1] 100 % of control | [2] 111 % of control

CN(C)CC(CN(C)C)C(=O)c1ccc(Cl)cc1
inactive: dose: 6.25 mg/kg/injection, schedule: Q01DX005 (ip), vehicle: saline 107 % of control and 95 % of control and 96 % of control | dose: 12.5 mg/kg/injection, schedule: Q01DX005 (ip), vehicle: saline 107 % of control and 115 % of control and 116 % of control | dose: 25.0 mg/kg/injection, schedule: Q01DX005 (ip), vehicle: saline 107 % of control and 118 % of control and 124 % of control | [3] 104 % of control and 113 % of control

COc1ccc2c(C)cc(N/N=C(\C)c3ccccn3)nc2c1
inactive: dose: 3.12 mg/kg/injection, schedule: Q01DX005 (ip), vehicle: Klucel (hydroxypropylcellulose) (HPC) 100 % of control | dose: 6.25 mg/kg/injection, schedule: Q01DX005 (ip), vehicle: Klucel (hydroxypropylcellulose) (HPC) 98 % of control | [4] 90 % of control and 97 % of control | [5] 95 % of control | [6] 98 % of control and 97 % of control

CC(=O)Nc1ccc(C(O)C2=CC(=O)c3ccccc3C2=O)cc1 (configuration not stated)
inactive: dose: 6.25 mg/kg/injection, schedule: Q01DX009 (ip), vehicle: saline 97 % of control | dose: 12.5 mg/kg/injection, schedule: Q01DX009 (ip), vehicle: saline 97 % of control | dose: 25.0 mg/kg/injection, schedule: Q01DX009 (ip), vehicle: saline 86 % of control | dose: 25.0 mg/kg/injection, schedule: Q01DX009 (ip), vehicle: suspension in saline 103 % of control | [7] 114 % of control | [8] 113 % of control

O=C(O)c1ccc(/C=C2\COc3ccccc3C2=O)cc1
inactive: [9] 103 % of control | [10] 112 % of control | [11] 112 % of control

CC1=NC(C)(Cc2ccccc2)SC1c1ccccc1 (configuration not stated)
inactive: [12] 110 % of control | [3] 100 % of control | [13] 96 % of control | [14] 106 % of control | [15] 101 % of control

COC(=O)c1ccc2cc1Nc1c(C#N)cnc(=S)n1-2
inactive: dose: 50.0 mg/kg/injection, schedule: Q01DX009 (ip), vehicle: saline with Tween-80 114 % of control | [16] 112 % of control | dose: 200.0 mg/kg/injection, schedule: Q01DX009 (ip), vehicle: saline with Tween-80 90 % of control

CS(=O)(=O)OC1CC(Cl)CO1 (configuration not stated)
inactive: dose: 100.0 mg/kg/injection, schedule: Q04DX003 (ip), vehicle: Klucel (hydroxypropylcellulose) (HPC) 100 % of control | dose: 200.0 mg/kg/injection, schedule: Q04DX003 (ip), vehicle: Klucel (hydroxypropylcellulose) (HPC) 100 % of control | dose: 400.0 mg/kg/injection, schedule: Q04DX003 (ip), vehicle: Klucel (hydroxypropylcellulose) (HPC) 103 % of control

O=c1c2cc3c(cc2c2cccc4c2n1CC4)OCO3
inactive: dose: 25.0 mg/kg/injection, schedule: Q01DX009 (ip), vehicle: other 96 % of control | dose: 50.0 mg/kg/injection, schedule: Q01DX009 (ip), vehicle: other 100 % of control | dose: 100.0 mg/kg/injection, schedule: Q01DX009 (ip), vehicle: other 86 % of control | dose: 200.0 mg/kg/injection, schedule: Q01DX009 (ip), vehicle: other 89 % of control | dose: 400.0 mg/kg/injection, schedule: Q01DX009 (ip), vehicle: other 91 % of control

O=C1OC(c2cccnc2)OC(c2ccccc2)=C1C(=O)c1ccccc1 (configuration not stated)
inactive: dose: 60.0 mg/kg/injection, schedule: Q01DX005 (ip), vehicle: Klucel (hydroxypropylcellulose) (HPC) 107 % of control | dose: 120.0 mg/kg/injection, schedule: Q01DX005 (ip), vehicle: Klucel (hydroxypropylcellulose) (HPC) 98 % of control | dose: 240.0 mg/kg/injection, schedule: Q01DX005 (ip), vehicle: Klucel (hydroxypropylcellulose) (HPC) 97 % of control

FC(F)(F)c1ccccc1C(Nc1nncs1)Nc1nncs1
inactive: [12] 97 % of control | [13] 101 % of control | dose: 200.0 mg/kg/injection, schedule: Q01DX005 (ip), vehicle: saline with Tween-80 107 % of control

C1=C[N-]c2c3c(ccc2=C1)=CC=C[N-]3.C1=C[N-]c2c3c(ccc2=C1)=CC=C[N-]3.O=S(=O)(O)O.[Cu+2]
inactive: dose: 1.56 mg/kg/injection, schedule: Q04DX002 (ip), vehicle: Klucel (hydroxypropylcellulose) (HPC) 117 % of control | dose: 3.12 mg/kg/injection, schedule: Q04DX002 (ip), vehicle: Klucel (hydroxypropylcellulose) (HPC) 107 % of control | dose: 6.25 mg/kg/injection, schedule: Q04DX002 (ip), vehicle: Klucel (hydroxypropylcellulose) (HPC) 107 % of control | dose: 12.5 mg/kg/injection, schedule: Q04DX002 (ip), vehicle: Klucel (hydroxypropylcellulose) (HPC) 115 % of control

CCN(CC)P1(=O)C=C(C)C2C1C1C=C(C)C2P1(=O)N(CC)CC (configuration not stated)
inactive: dose: 60.0 mg/kg/injection, schedule: Q01DX005 (ip), vehicle: saline 108 % of control | dose: 120.0 mg/kg/injection, schedule: Q01DX005 (ip), vehicle: saline 101 % of control | dose: 240.0 mg/kg/injection, schedule: Q01DX005 (ip), vehicle: saline 102 % of control

O=C1CCSC(=S)N1c1ccc(C(F)(F)F)cc1
inactive: [7] 90 % of control | [8] 97 % of control | dose: 200.0 mg/kg/injection, schedule: Q01DX009 (ip), vehicle: suspension in saline 94 % of control

CNc1[nH]c(=O)[nH]c(=O)c1[N+](=O)[O-]
inactive: [4] 100 % of control | [5] 105 % of control | [6] 105 % of control and 112 % of control

C=C(CC1(O)C(C2COC(C)(C)O2)OC2OC(C)(C)OC21)C(=O)OCC (configuration not stated)
inactive: [3] 96 % of control | [14] 98 % of control | [15] 105 % of control

COc1ccc2c(c1OC)C(=C(Cl)Cl)N1CCc3cc4c(cc3C1=C2C=O)OCO4
inactive: dose: 12.5 mg/kg/injection, schedule: Q01DX005 (ip), vehicle: saline with Tween-80 98 % of control | dose: 25.0 mg/kg/injection, schedule: Q01DX005 (ip), vehicle: saline with Tween-80 92 % of control | [12] 90 % of control and 96 % of control

O=C1C=CC(Nc2ccc(Cl)c(Cl)c2)C1Nc1ccc(Cl)c(Cl)c1 (configuration not stated)
inactive: [9] 100 % of control | [10] 93 % of control | [11] 93 % of control

C[C@H]1CC[C@@H]2[C@@H](C)[C@H]3[C@H](C[C@H]4[C@@H]5CC=C6C[C@@H](O)CC[C@]6(C)[C@H]5C[C@H](O)[C@]34C)N2C1
inactive: [5] 101 % of control and 105 % of control

CNc1ccccc1C(=O)N1CCc2c([nH]c3ccccc23)C1=O
inactive: dose: 25.0 mg/kg/injection, schedule: Q01DX009 (ip), vehicle: saline with Tween-80 98 % of control | [16] 93 % of control

From PubChem BioAssay AID330 (DTP/NCI, 2004)
